pIC50: −log10 of the molar value. Where only a bound is given, the exact number is not on record here.
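Note: fluorescence intensity readout of USP7 enzymatic activity, reaction incubated 90 min at room temperature.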

The assay deals with USP7 (Homo sapiens, UniProt Q93009). The assay can be described thus: biochemical.
Sequence of USP7 (Q93009 whole entry): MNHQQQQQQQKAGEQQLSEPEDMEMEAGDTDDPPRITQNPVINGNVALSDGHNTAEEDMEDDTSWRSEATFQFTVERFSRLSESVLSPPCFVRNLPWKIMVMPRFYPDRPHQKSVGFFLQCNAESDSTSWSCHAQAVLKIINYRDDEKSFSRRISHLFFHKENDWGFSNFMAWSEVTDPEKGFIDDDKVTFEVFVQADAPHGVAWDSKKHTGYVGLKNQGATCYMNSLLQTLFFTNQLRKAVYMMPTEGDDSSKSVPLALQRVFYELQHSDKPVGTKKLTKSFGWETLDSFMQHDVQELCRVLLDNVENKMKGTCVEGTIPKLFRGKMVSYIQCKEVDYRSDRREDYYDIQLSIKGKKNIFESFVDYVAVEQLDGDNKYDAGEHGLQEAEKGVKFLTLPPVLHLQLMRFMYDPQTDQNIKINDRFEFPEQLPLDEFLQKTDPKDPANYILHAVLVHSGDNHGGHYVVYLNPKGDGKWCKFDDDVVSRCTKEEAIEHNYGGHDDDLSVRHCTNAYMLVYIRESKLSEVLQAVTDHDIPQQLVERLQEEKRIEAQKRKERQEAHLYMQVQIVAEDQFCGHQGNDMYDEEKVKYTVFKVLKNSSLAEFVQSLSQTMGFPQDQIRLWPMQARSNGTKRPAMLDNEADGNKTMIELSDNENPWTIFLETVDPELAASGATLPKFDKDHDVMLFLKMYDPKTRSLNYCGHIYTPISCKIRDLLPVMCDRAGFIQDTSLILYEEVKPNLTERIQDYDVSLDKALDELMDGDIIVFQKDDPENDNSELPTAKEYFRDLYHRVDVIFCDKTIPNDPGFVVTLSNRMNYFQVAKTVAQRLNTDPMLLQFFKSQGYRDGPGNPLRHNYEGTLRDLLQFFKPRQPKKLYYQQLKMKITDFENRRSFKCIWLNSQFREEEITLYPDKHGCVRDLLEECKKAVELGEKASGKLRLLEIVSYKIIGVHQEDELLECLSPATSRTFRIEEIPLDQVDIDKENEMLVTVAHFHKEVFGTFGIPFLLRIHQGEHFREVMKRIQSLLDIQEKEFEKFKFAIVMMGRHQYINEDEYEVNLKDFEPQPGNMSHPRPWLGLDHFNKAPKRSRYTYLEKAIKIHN
In general, pIC50 refers to the negative decadic logarithm of the IC50, by convention in mol/L. A low value points to a large IC50. `Cc1ccnn(Cc2cc3nccc(-c4cc(Cl)cc5c4N(C4CNC4)CCC5)c3s2)c1=O` [Example 18, 2-[[7-[1-(azetidin-3-yl)-6-chloro-3,4-dihydro-2H-quinolin-8-yl]thieno[3,2-b]pyridin-2-yl]methyl]-4-methyl-pyridazin-3-one] gave a negative logarithm of the IC50 (pIC50) of 7.00 to 8.00. Take `CC1(C)C[C@H](N2CCCc3cc(C#N)cc(-c4ccnc5cc(CN6C(=O)CN(C7CC(F)(F)C7)C6=O)sc45)c32)CN1` [Example 127, (S)-8-(2-((3-(3,3-difluorocyclobutyl)-2,5-dioxoimidazolidin-1-yl)methyl)thieno[3,2-b]pyridin-7-yl)-1-(5,5-dimethylpyrrolidin-3-yl)-1,2,3,4-tetrahydroquinoline-6-carbonitrile]: the pIC50 was more than 8.00. For `O=C1CCC(=O)N1Cc1cc2nccc(-c3cc(Cl)cc4c3N([C@H]3CNC(CO)(CO)C3)CCC4)c2s1` (single isomer, unassigned) [Example 181b], the negative logarithm of the IC50 (pIC50) was 7.00 to 8.00.

Molecule `NC(=O)c1cc(-c2ccnc3cc(Cn4c(=O)ccn(CC(F)(F)F)c4=O)sc23)c2c(c1)[C@@H]1C[C@@H]1CN2[C@@H]1CNC2(CCC2)C1` [Example 170, (1aS,7bR)-4-(2-((2,6-dioxo-3-(2,2,2-trifluoroethyl)-3,6-dihydropyrimidin-1(2H)-yl)methyl)thieno[3,2-b]pyridin-7-yl)-3-((S)-5-azaspiro[3.4]octan-7-yl)-1a,2,3,7b-tetrahydro-1H-cyclopropa[c]quinoline-6-carboxamide] showed a negative-log IC50 (pIC50) of more than 8.00. Molecule `CN1CCC(N2CCCc3cc(Cl)cc(-c4ccnc5cc(CN6C(=O)CCC6=O)sc45)c32)CC1` [Example 46, 1-[[7-[6-chloro-1-(1-methyl-4-piperidyl)-3,4-dihydro-2H-quinolin-8-yl]thieno[3,2-b]pyridin-2-yl]methyl]pyrrolidine-2,5-dione] gave a pIC50 of 7.00 to 8.00. As to `O=C1CCC(=O)N1Cc1cc2ncnc(-c3cc(Cl)cc4c3N([C@@H]3CNC5(CCC5)C3)C[C@H]3C[C@@H]43)c2s1` [Example 167a, 1-((4-((1aS,7bR)-6-chloro-3-((S)-5-azaspiro[3.4]octan-7-yl)-1a,2,3,7b-tetrahydro-1H-cyclopropa[c]quinolin-4-yl)thieno[3,2-d]pyrimidin-6-yl)methyl)pyrrolidine-2,5-dione], the pIC50 was more than 8.00. `O=C1c2ccccc2CN1Cc1cc2nccc(-c3cc(Cl)cc4c3N([C@H]3CCNC3)CCC4)c2s1` [Example 71, (S)-2-((7-(6-chloro-1-(pyrrolidin-3-yl)-1,2,3,4-tetrahydroquinolin-8-yl)thieno[3,2-b]pyridin-2-yl)methyl)isoindolin-1-one] had a negative-log IC50 (pIC50) of 6.00 to 7.00. For `CC(C)(C)c1cnn(Cc2cc3nccc(-c4cc(C#N)cc5c4N([C@@H]4CN[C@@H](CO)C4)CCC5)c3s2)c(=O)c1` [Example 190, 8-[2-[(4-tert-butyl-6-oxo-pyridazin-1-yl)methyl]thieno[3,2-b]pyridin-7-yl]-1-[(3S,5R)-5-(hydroxymethyl)pyrrolidin-3-yl]-3,4-dihydro-2H-quinoline-6-carbonitrile] the value was more than 8.00; for `N#Cc1cc2c(c(-c3ccnc4cc(Cn5c(=O)ccn(CC(F)(F)F)c5=O)sc34)c1)N([C@H]1CCN([C@@H]3CC[C@H]3O)C1)CCC2` (single isomer, unassigned) [Example 107a], more than 8.00. In the case of `O=c1cc(C2CC2)cnn1Cc1cc2nccc(-c3cc(Cl)cc4c3N([C@@H]3CN[C@H](CO)C3)CCC4)c2s1` [Example 187, 2-((7-(6-chloro-1-((3S,5S)-5-(hydroxymethyl)pyrrolidin-3-yl)-1,2,3,4-tetrahydroquinolin-8-yl)thieno[3,2-b]pyridin-2-yl)methyl)-5-cyclopropylpyridazin-3(2H)-one] it was more than 8.00. In the case of `O=C1CCC(=O)N1Cc1cc2nccc(-c3cc(Cl)cc4c3N([C@H]3CNC5(CCC5)C3)CCC4)c2s1` (single isomer, unassigned) [Example 139a] it was 7.00 to 8.00.

The molecule `CC1(C)C[C@H](N2CCCc3cc(C#N)cc(-c4ccnc5cc(Cn6ncc(C7CC7)cc6=O)sc45)c32)CN1` [Example 128, (S)-8-(2-((4-cyclopropyl-6-oxopyridazin-1(6H)-yl)methyl)thieno[3,2-b]pyridin-7-yl)-1-(5,5-dimethylpyrrolidin-3-yl)-1,2,3,4-tetrahydroquinoline-6-carbonitrile] gave a pIC50 of more than 8.00. In the case of `O=C1C2CC2C(=O)N1Cc1cc2nccc(-c3cc(Cl)cc4c3N(C3CNC3)CCC4)c2s1` (stereo not shown) [Example 13, 3-((7-(1-(azetidin-3-yl)-6-chloro-1,2,3,4-tetrahydroquinolin-8-yl)thieno[3,2-b]pyridin-2-yl)methyl)-3-azabicyclo[3.1.0]hexane-2,4-dione] it was 7.00 to 8.00; in that of `CC1(C)C[C@H](N2CCCc3cc(C#N)cc(-c4ccnc5cc(Cn6c(=O)ccn(CC(F)(F)F)c6=O)sc45)c32)CN1` [Example 125, (S)-1-(5,5-dimethylpyrrolidin-3-yl)-8-(2-((2,6-dioxo-3-(2,2,2-trifluoroethyl)-2,3-dihydropyrimidin-1(6H)-yl)methyl)thieno[3,2-b]pyridin-7-yl)-1,2,3,4-tetrahydroquinoline-6-carbonitrile], more than 8.00. For the molecule `Cc1cnn(Cc2cc3nccc(-c4cc(Cl)cc5c4N([C@@H]4CN[C@@H](CO)C4)CCO5)c3s2)c(=O)c1` [Example 216, 2-((7-(7-chloro-4-((3S,5R)-5-(hydroxymethyl)pyrrolidin-3-yl)-3,4-dihydro-2H-benzo[b][1,4]oxazin-5-yl)thieno[3,2-b]pyridin-2-yl)methyl)-5-methylpyridazin-3(2H)-one], the pIC50 was more than 8.00.

On to `CO[C@@H]1CNC[C@H]1N1CCCc2cc(Cl)cc(-c3ccnc4cc(CN5C(=O)CCC5=O)sc34)c21` (single isomer, unassigned) [Example 97b], for which the negative-log IC50 (pIC50) was more than 8.00. In the case of `O=C1CCC(=O)N1Cc1cc2nccc(-c3cc(Cl)cc4c3N(C3CNC5(CC(F)C5)C3)CCC4)c2s1` (stereo not shown) [Example 211, 1-((7-(6-chloro-1-(2-fluoro-5-azaspiro[3.4]octan-7-yl)-1,2,3,4-tetrahydroquinolin-8-yl)thieno[3,2-b]pyridin-2-yl)methyl)pyrrolidine-2,5-dione] it was more than 8.00; in that of `C[C@@H](c1cc2nccc(-c3cc(C#N)cc4c3N([C@H]3CCNC3)CCC4)c2s1)N1C(=O)CCC1=O` (single isomer, unassigned) [Example 112b], 6.00 to 7.00. In the case of `CC(F)(F)CCn1ccc(=O)n(Cc2cc3nccc(-c4cc(Cl)cc5c4N([C@H]4CCNC4)CCC5)c3s2)c1=O` [Example 104, (S)-3-((7-(6-chloro-1-(pyrrolidin-3-yl)-1,2,3,4-tetrahydroquinolin-8-yl)thieno[3,2-b]pyridin-2-yl)methyl)-1-(3,3-difluorobutyl)pyrimidine-2,4(1H,3H)-dione] it was more than 8.00; in that of `N#Cc1cc(-c2ccnc3cc(Cn4ncc(C5(C(F)(F)F)CC5)cc4=O)sc23)c2c(c1)C1CC1CN2[C@@H]1CN[C@@H](CO)C1` (stereo in doubt) [Example 194b, (1aS,7bR)-3-((3S,5R)-5-(hydroxymethyl)pyrrolidin-3-yl)-4-(2-((6-oxo-4-(1-(trifluoromethyl)cyclopropyl)pyridazin-1(6H)-yl)methyl)thieno[3,2-b]pyridin-7-yl)-1a,2,3,7b-tetrahydro-1H-cyclopropa[c]quinoline-6-carbonitrile], 7.00 to 8.00; in that of `O=C1CCC(=O)N1Cc1cc2nccc(-c3cc(Cl)cc4c3N([C@@H]3CCC5(CCCN5)C3)CCC4)c2s1` (single isomer, unassigned) [Example 179a], 7.00 to 8.00. Molecule `O=c1ccn(CC(F)(F)F)c(=O)n1Cc1cc2nccc(-c3cc(Cl)cc4c3N(C3CNC3)CCC4)c2s1` [Example 24, 3-[[7-[1-(azetidin-3-yl)-6-chloro-3,4-dihydro-2H-quinolin-8-yl]thieno[3,2-b]pyridin-2-yl]methyl]-1-(2,2,2-trifluoroethyl)pyrimidine-2,4-dione] showed a pIC50 of more than 8.00.

For the molecule `Cc1cnn(Cc2cc3nccc(-c4cc(C#N)cc5c4N(C4CNC(C)(C)C4)CCC5)c3s2)c(=O)c1` (single isomer, unassigned) [Example 120a], the negative logarithm of the IC50 (pIC50) is more than 8.00. In the case of `O=C1CCC(=O)N1Cc1cc2nccc(-c3cc(Cl)cc4c3N([C@H]3CCNC3)C[C@H]3C[C@@H]43)c2s1` (single isomer, unassigned) [Example 113d] it was more than 8.00. In the case of `Cn1cc(Cc2cc3nccc(-c4cc(Cl)cc5c4N([C@@H]4CCNC4)CCC5)c3s2)nn1` (single isomer, unassigned) [Example 98] it was 6.00 to 7.00; in that of `CC1(C)C[C@H](N2CCCc3cc(C#N)cc(-c4ccnc5cc(CN6C(=O)CCCC6=O)sc45)c32)CN1` [Example 130, (S)-1-(5,5-dimethylpyrrolidin-3-yl)-8-(2-((2,6-dioxopiperidin-1-yl)methyl)thieno[3,2-b]pyridin-7-yl)-1,2,3,4-tetrahydroquinoline-6-carbonitrile], more than 8.00; in that of `O=C1CCC(=O)N1C1(c2cc3nccc(-c4cc(Cl)cc5c4N([C@H]4CCNC4)CCC5)c3s2)CC1` [Example 110], 6.00 to 7.00.

Regarding `N[C@@H]1CCN(C2CCOc3cc(Cl)cc(-c4ccnc5cc(CN6C(=O)CCC6=O)sc45)c32)C1` (stereo in doubt) [Example 230b, 1-((7-((R)-4-((R)-3-aminopyrrolidin-1-yl)-7-chlorochroman-5-yl)thieno[3,2-b]pyridin-2-yl)methyl)pyrrolidine-2,5-dione], the pIC50 was less than 6.00. As to `Cc1cnn(Cc2cc3nccc(-c4cc(Cl)cc5c4N(C4CNC4)CCC5)c3s2)c(=O)c1` [Example 22, 2-[[7-[1-(azetidin-3-yl)-6-chloro-3,4-dihydro-2H-quinolin-8-yl]thieno[3,2-b]pyridin-2-yl]methyl]-5-methyl-pyridazin-3-one], the negative logarithm of the IC50 (pIC50) was 7.00 to 8.00.

In turn, `O=C1CCC(=O)N1Cc1cc2nccc(-c3cc(C(F)(F)F)cc4c3N([C@H]3CCNC3)CCC4)c2s1` (single isomer, unassigned) [Example 79] had a negative-log IC50 (pIC50) of more than 8.00.

As for `C[C@H]1CCc2cc(Cl)cc(-c3ccnc4cc(CN5C(=O)CCC5=O)sc34)c2N1[C@@H]1CCNC1` (single isomer, unassigned) [Example 44a], the negative logarithm of the IC50 (pIC50) is 7.00 to 8.00.
